For five compounds, Inhibition of heparanase and IC50 results are on record in patent US20260001967A1, “SYNTHETIC HEXASACCHARIDES MIMICS OF HEPARIN SHOWING HEPARANASE INHIBITION ACTIVITY” (CENTRO ALTA TECNOLOGIA ISTITUTO DI RICERCHE CHIMICHE E …, priority 2022, published 2026).

The target of test [1] is T1, heparanase (Homo sapiens, UniProt Q9Y251).
T1 sequence (Q9Y251 158-543 limits assumed): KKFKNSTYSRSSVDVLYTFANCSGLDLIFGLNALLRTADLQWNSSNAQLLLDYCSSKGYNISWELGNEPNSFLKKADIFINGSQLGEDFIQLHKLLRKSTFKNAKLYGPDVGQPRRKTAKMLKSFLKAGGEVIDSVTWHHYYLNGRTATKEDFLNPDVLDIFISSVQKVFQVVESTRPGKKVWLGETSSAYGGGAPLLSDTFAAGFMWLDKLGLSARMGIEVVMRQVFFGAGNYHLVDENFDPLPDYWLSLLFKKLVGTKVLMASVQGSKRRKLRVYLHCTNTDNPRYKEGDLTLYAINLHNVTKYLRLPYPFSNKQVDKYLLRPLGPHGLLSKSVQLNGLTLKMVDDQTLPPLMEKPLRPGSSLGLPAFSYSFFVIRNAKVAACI
T1 sequence (Q9Y251 36-109 limits assumed): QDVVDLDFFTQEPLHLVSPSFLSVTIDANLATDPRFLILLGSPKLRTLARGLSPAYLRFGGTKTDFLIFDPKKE
Put plainly: Heparanase inhibition assay based on cleavage of fondaparinux, disaccharide assayed by colorimetry (Hammond). It is filed as biochemical. Conditions: for Inhibition of heparanase: over the concentration range tested. From the text:
To prepare 12 we adopted (Scheme 1) a classical disaccharide building-block approach (C. Tabeur et al., Oligosaccharides corresponding to the regular sequence of heparin: chemical synthesis and interaction with FGF-2. Bioorg. Med. Chem. 1999, 7, 2003-2012) based on the trichloroacetimidate glycosylation method (R. R. Schmidt, W. Kinzy, Adv. Carbohydr. Chem. Biochem. 1992, 50, 21-123). […] The hexasaccharide sequence was completed by reaction under similar conditions with the trichloroacetimidate disaccharide 8 itself classically obtained from 6. […] After saponification to remove the acetyl groups and cleave the methyl esters, preparative HPLC allowed to separate 10 from its β-anomer. […] The glycol-split derivatives were then obtained (Scheme 2). […] The inhibition of heparanase was evaluated using an assay based on the cleavage of the synthetic heparin pentasaccharide fondaparinux (Arixtra®; Aspen). Cleavage of fondaparinux by heparanase, yields a disaccharide that is assayed by colorimetry. The assay was essentially performed as described by Hammond (E. Hammond, C. P. Li, V. Ferro, Development of a colorimetric assay for heparanase activity suitable for kinetic analysis and inhibitor screening, Anal. Biochem. 396 (2010), 112-116, http://doi.10.1016/j.ab.2009.09.007.
Serial dilutions of the compounds and of the reference roneparstat were tested. IC50 values were ultimately determined using GraphPad software.

Test [2] concerns the target T1, heparanase. Conditions: cited from earlier work.

Like-named read-outs stand apart in the source and are kept apart here.

Consider `COC1OC(COS(=O)(=O)O)C(OC2OC(C(=O)O)C(OC3OC(COS(=O)(=O)O)C(OC4OC(C(=O)O)C(OC5OC(COS(=O)(=O)O)C(OC6OC(C(=O)O)C(OC)C(O)C6OS(=O)(=O)O)C(O)C5NC(C)=O)C(O)C4O)C(O)C3NC(C)=O)C(O)C2OS(=O)(=O)O)C(O)C1NC(C)=O` (stereo not drawn) [Compound 16], for which the Inhibition of heparanase result in test [1] is “hardly detectable”.

As to `COC1OC(COS(=O)(=O)O)C(OC2OC(C(=O)O)C(OC3OC(COS(=O)(=O)O)C(OC4OC(C(=O)O)C(OC5OC(COS(=O)(=O)O)C(OC6OC(C(=O)O)C(OC)C(O)C6OS(=O)(=O)O)C(O)C5NS(=O)(=O)O)C(O)C4O)C(O)C3NS(=O)(=O)O)C(O)C2OS(=O)(=O)O)C(O)C1NS(=O)(=O)O` (stereo not drawn) [Compound 13], the half-inhibitory concentration (IC50) (usually the midpoint of a concentration-inhibition curve) in test [1] (Table 1, hexasaccharides, read-out: IC50) is more than 29.4 µM. Besides, in test [1], the Inhibition of heparanase result is on record as “hardly detectable”.

For the compound GlcN(Ns,6s)-GlcA(gs)-GlcN(Ns,1,6anh), in test [2], the IC50 is 2 µg/mL.

With `COC1OC(COS(=O)(=O)O)C(OC2OC(C(=O)O)C(OC3OC(COS(=O)(=O)O)C(OC4OC(C(=O)O)C(OC5OC(COS(=O)(=O)O)C(OC6OC(C(=O)O)C(OC)C(O)C6OS(=O)(=O)O)C(O)C5N)C(O)C4O)C(O)C3N)C(O)C2OS(=O)(=O)O)C(O)C1N` (stereo not drawn) [Compound 12], the Inhibition of heparanase result in test [1] is given as “hardly detectable”.

With Roneparstat [reference compound], the IC50 in test [1] was determined as 0.006 µg/mL.
